Measurements published in patent US10653637B2, “Preventives or remedies for hepatopathy” (priority 2003, dated 2020).

Experiments:
[1] = system: DMN-induced hepatic fibrosis/liver cirrhosis model; experiment: Ghrelin administration in DMN-induced hepatic fibrosis/liver cirrhosis model (survival rate); assay type: in vivo, rat; conditions: DMN-treated rats
Procedure: Ghrelin administration experiment using dimethylnitrosoamine (DMN)-induced hepatic fibrosis/liver cirrhosis model (Estimation of survival rate).
A hepatic fibrosis/liver cirrhosis rat model to be induced by DMN was prepared, rat ghrelin was subcutaneously injected, and the effect on hepatopathy was investigated.
Upon use, a dilution in which DMN (manufactured by Wako Pure Chemical Industries, Ltd.) was diluted with a physiological saline solution (manufactured by Otsuka Pharmaceutical Co., Ltd., physiological saline solution described in the Japanese Pharmacopoeia) to 1% concentration (v/v) was prepared, and this was intraperitoneafly administered to male rats (4 weeks old) so that DMN became 1 mL/kg. Administration was performed once a day, for consecutive three days in one week, and administration was repeated for 6 weeks, and the first time administration date was regarded as day 1.
Rat ghrelin (purchased from Peptide Institute Inc., Japan) was added to 5 weight % mannitol as a solvent to a concentration of 1 mg/mL, this was dispensed every necessary amount per one time, and freezing-stored at about −80° C. until its use. Upon use, this was thawed, and diluted with a physiological saline solution to a concentration of 30 μg/mL and 3 μg/mL to obtain a dosing solution. […]

[2] = system: DMN-induced hepatic fibrosis rat; experiment: Ghrelin administration in DMN-induced hepatic fibrosis/liver cirrhosis model (organ weight, hematology, serum biochemistry); assay type: in vivo; conditions: 35 days, DMN treatment
Procedure: Ghrelin administration experiment using DMN-induced hepatic fibrosis/liver cirrhosis model (Estimation of various parameters)
According to the same manner as that of Example 1 except that administration days were changed from 8 weeks to 35 days, an experiment was performed, and the effect of rat ghrelin on hepatopathy was estimated from a viewpoint of organ weight, hematology and serum biochemistry. A DMN-untreated group (normal rat) was used as a control group.

rat hepatocytes = experiment: Rat hepatocyte proliferation promoting activity (ki-67 immunostaining) after one week of repeated administration; assay type: in vivo; conditions: ghrelin 10 μg/kg i.v. two times a day for 7 days; for Positive ratio (ki-67): % printed in b244 only; for Number of ki-67 positive cells: among 231±27 hepatocytes, eight places of liver section
Procedure: Rat hepatocyte proliferation promoting activity by repeated administration of ghrelin for one week
10 μg/kg of ghrelin was repeatedly administered intravenously to Wistar male rats two times a day for 7 days and, on the next day from administration completion, liver was isolated and fixed. Then, ki-67 protein as a peptide which is expressed at cell growth phase was immunostained.
For quantatively assessing hepatocyte proliferation activity by ghrelin, eight places of the liver section of one case of the physiological saline-administered group and one case of the ghrelin-administered group were arbitrarily selected, and among about 200 hepatocytes in a visual field, the number of ki-67 positive cells was counted under a microscope.

[3] = system: Wistar male rats after 70% hepatectomy; experiment: Liver weight after hepatectomy under 40% restricted diet; assay type: in vivo, rat; conditions: ghrelin 30 μg/kg s.c. two times a day for 3 days after 70% hepatectomy, four days after
Procedure: Liver Weight after Hepatectomy
Seventy % of liver was excised under anesthesia in Wistar male rats, and 30 μg/kg of ghrelin or a physiological saline was subcutaneously injected two times a day for 3 days under 40% restricted diet. Four days after, rat liver was isolated, and the liver weight was measured.

Wistar male rats = experiment: Organ blood flow (microspheres); assay type: in vivo, rat; conditions: ghrelin 30 μg/kg s.c., under anesthesia; for Hepatic blood flow / Spleen blood flow / Stomach blood flow: mean ± standard deviation, 6 rats per group
PCNA mRNA = experiment: Expression of hepatocyte proliferation marker PCNA mRNA in liver (real time RT-PCR); assay type: in vivo, rat; conditions: ghrelin 30 μg/kg s.c., DMN-induced hepatic fibrosis rats
Procedure: (§1) Amount of expression of hepatocyte proliferation marker (PCNA) and HGF
(§2) Amounts of expression of a PCNA mRNA and a HGF mRNA in the liver after subcutaneous injection of a physiological saline and ghrelin to DMN-induced hepatic fibrosis rats were measured by the real time RT-PCR method.

HGF mRNA = experiment: Expression of HGF mRNA in liver (real time RT-PCR); assay type: in vivo, rat; conditions: ghrelin 30 μg/kg s.c., DMN-induced hepatic fibrosis rats
Procedure: as §1, §2

[4] = ghrelin 3 μg/kg s.c. once a day
[5] = ghrelin 3 μg/kg s.c. once a day, mean±S.E.
[6] = ghrelin 30 μg/kg s.c. once a day
[7] = ghrelin 30 μg/kg s.c. once a day, listed as ghrelin
[8] = ghrelin 30 μg/kg s.c. once a day, mean±S.E.
[9] = ghrelin 30 μg/kg s.c. once a day, mean±S.E., listed as ghrelin
[10] = ghrelin administration, dose not given

For Ghrelin, the “survived at 56 days” value ([1]; ghrelin 3 μg/kg s.c. once a day from day 1 over 8 weeks) was 75%, the “survival at 56 days” value ([1]; ghrelin 30 μg/kg s.c. once a day from day 1 over 8 weeks) was “all cases survived” and the “Ascites (appearance frequency)” value [2, 4] was 2/7. For the same substance, the Erythrocyte [2, 4] was 6.4 ± 0.2 ×10^6/μL, the Fibrinogen [2, 4] was 166 ± 9.5 mg/dL and the Hepaplastin time [2, 4] was 86.2 ± 11.8 s. For the same substance, the Leukocyte [2, 4] was 7.3 ± 0.6 ×10^3/μL, the Platelet [2, 4] was 52.3 ± 6.2 ×10^4/μL and the “Spleen weight increase as compared with normal rats” value [2, 4] was “more than 2 fold”. The “Δ liver weight” value [2, 5] was 13.6 ± 0.7 g, the “Δ spleen weight” value [2, 5] was 2.20 ± 0.08 g and the “Δ liver weight (g)” value ([2]; ghrelin 3 μg/kg s.c. once a day, mean±S.E., listed as ghrelin) was “reduced as compared with a normal rat”. For the same substance, the “Ascites (appearance frequency)” value [2, 6] was 0/7, the Erythrocyte [2, 6] was 6.8 ± 0.3 ×10^6/μL and the Fibrinogen [2, 6] was 207 ± 16.3 mg/dL. The Hepaplastin time [2, 6] was 77.8 ± 3.2 s, the Leukocyte [2, 6] was 6.6 ± 1.2 ×10^3/μL and the Platelet [2, 6] was 89.6 ± 5.5 ×10^4/μL. The “Ascites (appearance frequency)” value [2, 7] was “ascites did not appear”, the Erythrocyte [2, 7] was “returned to a normal level” and the Leukocyte [2, 7] was “returned to a normal level”. The Platelet [2, 7] was “the number of platelets was recovered”, the “Δ liver weight” value [2, 8] was 14.3 ± 0.6 g and the “Δ spleen weight” value [2, 8] was 1.83 ± 0.12 g. For the same substance, the “Δ liver weight (g)” value [2, 9] was “reduction in the liver weight was suppressed”, the “Δ spleen weight (g)” value [2, 9] was “increase was slightly suppressed” and the “hepaplastin time (in words)” value [2, 10] was “tended to be normalized”. For the same substance, the “serum fibrinogen (in words)” value [2, 10] was “a tendency that fibrinogen was recovered to normalization”, the “Positive ratio (ki-67)” value (rat hepatocytes) was 9.28 ± 3.26% and the “Positive ratio (ki-67)” value (rat hepatocytes; listed as ghrelin) was 9.28±3.26%. The “Number of ki-67 positive cells” value (rat hepatocytes) was 20.9 ± 6.1, the “Number of ki-67 positive cells” value (rat hepatocytes; listed as ghrelin) was 20.9±6.1 and the Liver weight [3] was 2.464 ± 0.133. The Liver weight ([3]; listed as ghrelin) was “the liver weight was increased”, the Hepatic blood flow (Wistar male rats) was 1.049 ± 0.414 mL/min/kg and the Spleen blood flow (Wistar male rats) was 1.099 ± 0.264 mL/min/kg. For the same substance, the Stomach blood flow (Wistar male rats) was 1.064 ± 0.486 mL/min/kg, the Hepatic blood flow (Wistar male rats; listed as ghrelin) was “increased” and the Spleen blood flow (Wistar male rats; listed as ghrelin) was “increased”. The Stomach blood flow (Wistar male rats; listed as ghrelin) was “increased”, the “blood flow in jejunum” value (Wistar male rats; versus physiological saline) was “a tendency of blood flow increase” and the “PCNA mRNA (amount of expression in the liver)” value (PCNA mRNA) was 2.083 ± 0.533. For the same substance, the “PCNA mRNA (amount of expression in the liver)” value (PCNA mRNA; listed as ghrelin) was “tended to be increased”, the “HGF mRNA (amount of expression in the liver)” value (HGF mRNA) was 2.025 ± 0.595 and the “HGF mRNA (amount of expression in the liver)” value (HGF mRNA; listed as ghrelin) was “increased”.
